Measurements: patent publication US9365506B2, “Compounds and compositions as TLR2 agonists” (NOVARTIS AG, priority 2010, dated 2016)

Target: human TLR2 (Homo sapiens, UniProt O60603)
Assay: Reporter gene assay: HEK 293 cells stably transfected with human TLR2 and NF-kB-driven luciferase reporter
Conditions: for Emax: HEK293, 7 h, read-out: Hek-TLR2 (% Eff); for EC50: Hek-TLR2 μM (EC50), HEK 293 stably transfected with human TLR2 and pNifty-Luciferase, 7 hours incubation, concentration giving 50% of maximal signal
Protocol: As a control assay, normal Hek293 transfected with pNifty-Luc were used. […] Bright-Glo™ Luciferase assay buffer and substrate were supplied by Promega #E263B and #E264B (assay substrate and buffer respectively). 384 well clear-bottom plates were supplied by Greiner bio-one (#789163-G) and were custom bar-coded plates.
Cells were plated at 25,000 cells/well in 384-well plates in a final volume of 50 μl of media. Cells were allowed to adhere to the plates after overnight (18 hours) culture at 37° C. and 5% CO2. Serially diluted experimental and positive control compounds were then dispensed to each well and incubated for 7 hours at 37° C. and 5% CO2. Cells stimulated with DMSO alone also serve as negative controls. After the incubation, 30 μl of the pre-mix assay buffer and substrate buffer were added to each well according to manufacturer's instructions. The luminescence signal was read on a CLIPR machine with an integration time of 20 seconds per plate.

Sequence of human TLR2 (O60603 21-784): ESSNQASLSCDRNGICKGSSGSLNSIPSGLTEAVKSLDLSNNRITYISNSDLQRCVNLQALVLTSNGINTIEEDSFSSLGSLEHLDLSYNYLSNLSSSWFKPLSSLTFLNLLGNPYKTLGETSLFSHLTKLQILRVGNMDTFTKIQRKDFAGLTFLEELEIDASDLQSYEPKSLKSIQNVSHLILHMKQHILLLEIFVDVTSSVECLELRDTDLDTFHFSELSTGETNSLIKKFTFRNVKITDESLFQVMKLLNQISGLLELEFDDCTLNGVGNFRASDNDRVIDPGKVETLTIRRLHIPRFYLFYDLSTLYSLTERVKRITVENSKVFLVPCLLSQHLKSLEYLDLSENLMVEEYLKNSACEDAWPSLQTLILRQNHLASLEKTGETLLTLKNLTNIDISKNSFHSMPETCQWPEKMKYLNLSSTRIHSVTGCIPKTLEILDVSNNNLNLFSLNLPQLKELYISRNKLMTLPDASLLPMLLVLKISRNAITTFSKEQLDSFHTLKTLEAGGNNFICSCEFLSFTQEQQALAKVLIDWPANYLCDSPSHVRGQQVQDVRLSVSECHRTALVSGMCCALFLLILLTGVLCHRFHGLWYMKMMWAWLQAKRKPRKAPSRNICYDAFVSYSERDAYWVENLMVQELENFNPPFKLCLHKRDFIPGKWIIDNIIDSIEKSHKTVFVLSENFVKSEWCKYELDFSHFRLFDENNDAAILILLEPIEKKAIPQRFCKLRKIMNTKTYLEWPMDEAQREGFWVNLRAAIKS

Compound | Emax | EC50 | Hek-TLR2 (% Eff) (% Eff relative to Pam3CSK4, HEK 293 human TLR2 NF-kB luciferase)
CCCCCCCCCCCC(=O)OC[C@H](CSC[C@H](N)C(=O)NCCCCCN)OC(=O)CCCCCCCCCCC [Example 7, (R)-3-((R)-2-amino-3-(5-aminopentylamino)-3-oxopropylthio)propane-1,2-diyl didodecanoate] | 113% | 1220 nM | 
CCCCCCCCCCCC(=O)OC[C@H](CSC[C@H](N)C(=O)NCCCOCCCCOCCCN)OC(=O)CCCCCCCCCCC [Example 8, (2R,6R)-6,20-diamino-7-oxo-12,17-dioxa-4-thia-8-azaicosane-1,2-diyl didodecanoate] | 98% | 810 nM | 
CCCCCCCCCCCC(=O)OC[C@H](CSC[C@H](N)C(=O)NCCCOCCOCCOCCCNC(=O)C(N)CS)OC(=O)CCCCCCCCCCC (stereo partly drawn) [Example 9, (20R,24R)-2,20-diamino-1-mercapto-3,19-dioxo-8,11,14-trioxa-22-thia-4,18-diazapentacosane-24,25-diyl didodecanoate] | 73% | 247 nM | 
CCCCCCCCCCCC(=O)NC[C@H](CSC[C@H](N)C(=O)NC1(CO)CC1)NC(=O)CCCCCCCCCCC [Example 12, N,N′—((R)-3-((R)-2-amino-3-(1-(hydroxymethyl)cyclopropylamino)-3-oxopropylthio)propane-1,2-diyl)didodecanamide] | 3.5% | > 100000 nM | 
CCCCCCCCCCCC(=O)OC[C@H](CSC[C@H](N)C(=O)N[C@@H](CC)COCC(=O)O)OC(=O)CCCCCCCCCCC [Example 13, (5S,8R,12R)-8-amino-12-(dodecanoyloxy)-5-ethyl-7,15-dioxo-3,14-dioxa-10-thia-6-azahexacosan-1-oic acid] | 118% | 6500 nM | 
CCCCCCCCCCCC(=O)OC[C@H](CSC[C@H](N)C(=O)N[C@@H](C)COCCCP(=O)(O)O)OC(=O)CCCCCCCCCCC [Example 14, (6S,9R,13R)-9-amino-13-(dodecanoyloxy)-6-methyl-8,16-dioxo-4,15-dioxa-11-thia-7-azaheptacosylphosphonic acid] | 153% | 19.2 nM | 
CCCCCCCCCCCCOC[C@H](CSC[C@H](N)C(=O)NCCOCCOCCC(F)(F)P(=O)(O)O)OCCCCCCCCCCCC [Example 22, (12R,16R)-12-amino-16-(dodecyloxy)-1,1-difluoro-11-oxo-4,7,18-trioxa-14-thia-10-azatriacontylphosphonic acid] | 60% | 2450 nM | 
CCCCCCCCCCCCOC[C@H](CSC[C@H](N)C(=O)NCCOCCOCCOCCP(=O)(O)O)OC(=O)CCCCCCCCCCC [Example 27, ((14R,18R)-14-amino-18-(dodecanoyloxy)-13-oxo-3,6,9,20-tetraoxa-16-thia-12-azadotriacontyl)phosphonic acid] | 77% | 610 nM | 
CCCCCCCCCCCCOC[C@H](CSC[C@H](N)C(=O)N[C@@H](C)COCCOCCOCCP(=O)(O)O)OCCCCCCCCCCCC [Example 29, ((11S,14R,18R)-14-amino-18-(dodecyloxy)-11-methyl-13-oxo-3,6,9,20-tetraoxa-16-thia-12-azadotriacontyl)phosphonic acid] | 74% | 1850 nM | 
CCCCCCCCCCCCOC[C@H](CSC[C@H](N)C(=O)N[C@@H](C)C(=O)NCCOCCOCCP(=O)(O)O)NC(=O)CCCCCCCCCCC [Example 31, ((11S,14R,18R)-14-amino-18-dodecanamido-11-methyl-10,13-dioxo-3,6,20-trioxa-16-thia-9,12-diazadotriacontyl)phosphonic acid] | 35% | 2910 nM | 
CCCCCCCCCCCCOC[C@H](CSC[C@H](N)C(=O)NCCOCCOCCOCCC(=O)O)OCCCCCCCCCCCC [Example 32, (15R,19R)-15-amino-19-(dodecyloxy)-14-oxo-4,7,10,21-tetraoxa-17-thia-13-azatritriacontan-1-oic acid] | 78% | 9130 nM | 
CCCCCCCCCCCCOC[C@H](CSC[C@H](N)C(=O)NCCOCCOCCOCCC(=O)O)NC(=O)CCCCCCCCCCC [Example 33, (15R,19R)-15-amino-19-dodecanamido-14-oxo-4,7,10,21-tetraoxa-17-thia-13-azatritriacontan-1-oic acid] | 48% | 3850 nM | 
CCCCCCCCCCCCCCCC(=O)N[C@@H](CSC[C@@H](COC(=O)CCCCCCCCCCC)OC(=O)CCCCCCCCCCC)C(=O)NCCOCCOCCOCCP(=O)(O)O [Example 34, ((14R,18R)-18-(dodecanoyloxy)-13,21-dioxo-14-palmitamido-3,6,9,20-tetraoxa-16-thia-12-azadotriacontyl)phosphonic acid] | 47% | > 100000 nM | 
CCCCCCCCCCCCOC[C@H](CSC[C@H](N)C(=O)NCCOCCOCCC(F)(F)P(=O)(O)O)NC(=O)CCCCCCCCCCC [Example 35, (12R,16R)-12-amino-16-dodecanamido-1,1-difluoro-11-oxo-4,7,18-trioxa-14-thia-10-azatriacontylphosphonic acid] | 15% | 770 nM | 
CCCCCCCCCCCCCCCC(=O)N[C@@H](CSC[C@@H](COC(=O)NCCCCCCCCCC)OC(=O)NCCCCCCCCCC)C(=O)NCCOCCOCCOCCP(=O)(O)O [Example 39, (14R,18R)-18-(decylcarbamoyloxy)-13,21-dioxo-14-palmitamido-3,6,9,20-tetraoxa-16-thia-12,22-diazadotriacontylphosphonic acid] | 92% | 2640 nM | 

The remaining lines, values ahead:

Emax | EC50 | Hek-TLR2 (% Eff) (% Eff relative to Pam3CSK4, HEK 293 human TLR2 NF-kB luciferase) | Compound
101% | 31 nM |  | CCCCCCCCCCCC(=O)OC[C@H](CSC[C@H](N)C(=O)NCCOCCOCCC(F)(F)P(=O)(O)O)OC(=O)CCCCCCCCCCC [Example 4, (12R,16R)-12-amino-16-(dodecanoyloxy)-1,1-difluoro-11,19-dioxo-4,7,18-trioxa-14-thia-10-azatriacontylphosphonic acid]
72% | 14100 nM |  | CCCCCCCCCCCCCCCCOC[C@H](CSC[C@H](N)C(=O)N[C@@H](CC)C(=O)N[C@H](CCC(=O)O)C(N)=O)OCCCCCCCCCCCCCCCC [Example 10, (4R,7S,10R,14R)-10-amino-4-carbamoyl-7-ethyl-14-(hexadecyloxy)-6,9-dioxo-16-oxa-12-thia-5,8-diazadotriacontan-1-oic acid]
3.6% | > 100000 nM |  | CCCCCCCCCCCCCCCCOC[C@H](CSC[C@H](N)C(=O)NC1(CO)CC1)NC(=O)CCCCCCCCCCC [Example 11, N—((R)-1-((R)-2-amino-3-(1-(hydroxymethyl)cyclopropylamino)-3-oxopropylthio)-3-(hexadecyloxy)propan-2-yl)dodecanamide]
107% | 410 nM |  | CCCCCCCCCCCC(=O)OC[C@H](CSC[C@H](N)C(=O)NCCc1ccc(OCCCP(=O)(O)O)cc1)OC(=O)CCCCCCCCCCC [Example 16, 3-(4-(2-((R)-2-amino-3-((R)-2,3-bis(dodecanoyloxy)propylthio)propanamido)ethyl)phenoxy)propylphosphonic acid]
122% | 14 nM |  | CCCCCCCCCCCC(=O)OC[C@H](CSC[C@H](N)C(=O)NCCOCCC(F)(F)P(=O)(O)O)OC(=O)CCCCCCCCCCC [Example 21, (9R,13R)-9-amino-13-(dodecanoyloxy)-1,1-difluoro-8,16-dioxo-4,15-dioxa-11-thia-7-azaheptacosylphosphonic acid]
73% | 3040 nM |  | CCCCCCCC(=O)OC[C@H](CSC[C@H](N)C(=O)NCCOCCOCCOCCP(=O)(O)O)OC(=O)CCCCCCC [Example 23, (14R,18R)-14-amino-18-(octanoyloxy)-13,21-dioxo-3,6,9,20-tetraoxa-16-thia-12-azaoctacosylphosphonic acid]
99% | 6.3 nM |  | CCCCCCCCCCCCCC(=O)OC[C@H](CSC[C@H](N)C(=O)NCCOCCOCCOCCP(=O)(O)O)OC(=O)CCCCCCCCCCCCC [Example 25, (14R,18R)-14-amino-13,21-dioxo-18-(tetradecanoyloxy)-3,6,9,20-tetraoxa-16-thia-12-azatetratriacontylphosphonic acid]
37% | 990 nM |  | CCCCCCCCCCCCOC[C@H](CSC[C@H](N)C(=O)N[C@@H](C)COCCOCCOCCP(=O)(O)O)NC(=O)CCCCCCCCCCC [Example 28, ((11S,14R,18R)-14-amino-18-dodecanamido-11-methyl-13-oxo-3,6,9,20-tetraoxa-16-thia-12-azadotriacontyl)phosphonic acid]
59% | 920 nM |  | CCCCCCCCCCCCOC[C@H](CSC[C@H](N)C(=O)N[C@@H](C)C(=O)NCCOCCOCCP(=O)(O)O)OCCCCCCCCCCCC [Example 30, ((11S,14R,18R)-14-amino-18-(dodecyloxy)-11-methyl-10,13-dioxo-3,6,20-trioxa-16-thia-9,12-diazadotriacontyl)phosphonic acid]
 | 822 nM | (76%) | CCCCCCCCCCNC(=O)OC[C@H](CSC[C@H](N)C(=O)NCCOCCOCCOCCP(=O)(O)O)OC(=O)NCCCCCCCCCC [Example 36, (14R,18R)-14-amino-18-(decylcarbamoyloxy)-13,21-dioxo-3,6,9,20-tetraoxa-16-thia-12,22-diazadotriacontylphosphonic acid]
7% | 6210 nM |  | CCCCCCCCCCNC(=O)OC[C@H](CSC[C@H](N)C(=O)NCCOCCOCCOCCC(=O)O)OC(=O)NCCCCCCCCCC [Example 37, (15R,19R)-15-amino-19-(decylcarbamoyloxy)-14,22-dioxo-4,7,10,21-tetraoxa-17-thia-13,23-diazatritriacontan-1-oic acid]
107% | 7030 nM |  | CCCCCCCCNC(=O)OC[C@H](CSC[C@H](N)C(=O)NCCOCCOCCOCCP(=O)(O)O)OC(=O)NCCCCCCCC [Example 38, (14R,18R)-14-amino-18-(octylcarbamoyloxy)-13,21-dioxo-3,6,9,20-tetraoxa-16-thia-12,22-diazatriacontylphosphonic acid]
